Ends that are not written are not given here.
How the values were obtained:
[1] = Circular dichroism, α-helical content; format: physicochemical; conditions: CD, 50 mM potassium phosphate pH 7, 20° C.
Procedure: Circular dichroism (CD) spectra were obtained on a Jasco J-710 spectropolarimeter at 20° C. using the following standard measurement parameters: wavelength, 190-260 nm; step resolution, 0.5 nm; speed, 20 nm/sec; accumulations, 10; response, 1 sec; band width, 1 nm; path length, 0.1 cm. Stock solutions of peptide were dissolved in deionized water and concentrations determined by amino acid analysis. Samples were then diluted in 50 mM potassium phosphate pH 7 to a calculated final concentration of 50 μM. The CD spectrum of each sample was measured in triplicate and a background spectrum of diluent alone was subtracted. For comparison, the subtracted CD spectra were normalized to 35 μM based on repeat peptide concentration determination by amino acid analysis of the diluted peptide solutions. The α-helical content of each peptide was calculated by dividing the mean residue ellipticity [q]222obs by the reported [q]222obs for a model helical decapeptide (Yang et al., 1986).

GST-BCL-2 [2] = target: T1, GST-BCL-2 (Homo sapiens, UniProt P10415); assay: BH3 peptide displacement from GST-BCL-2 by fluorescence polarization; format: binding; conditions: for IC50: read-out: IC50 (nM), BID Displacement
T1 construct: a GST-BCL-2 fusion protein lacking the C-terminal transmembrane domain was utilized; made in house; host or cells: E. coli BL21 DE3
Text: (§1) To determine Kd for peptide binding to BCL-2, a GST-BCL-2 fusion protein lacking the C-terminal transmembrane domain was utilized. Peptides were synthesized with a fluorescein amino-terminus using an AHA linker. […] An increase in fluorescence polarization measured on a Perkin-Elmer LS 50B luminescence spectrophotometer was quantitated to calculate binding. A non-linear fit to a sigmoidal dose-response curve utilized the program Origin 6.0 to determine Kd. […] Data were fitted to a sigmoidal curve as above, and IC50 determined.
(§2) GST-BCL-2δC21 fusion proteins were induced in BL21 DE3 by 0.1 mM IPTG. The bacterial pellets were resuspended in lysis buffer (1 mg/ml lysozyme/1% Triton X-100/0.1 mg/ml PMSF/2 μg/ml aprotinin/2 μg/ml leupeptine/1 μg/ml pepstatin A in PBS) and sonicated. After centrifugation at 20,000×g for 20 min, the supernatant was applied to glutathione-agarose beads (Sigma). The beads were washed with PBS and treated with 50 mM glutathione/50 mM TrisHCl, pH8.0 to elute protein. Eluate was dialyzed against binding buffer and concentrated using Amicon centrifugal concentrating devices.

BAK = target: T2, BAK (Mus musculus, UniProt O08734); assay: BAK oligomerization, BMH cross-linking and immunoblot; format: biochemical; conditions: 100 μM peptide, cross-linker BMH
T2 construct: capable of inducing an allosteric change in mitochondrial-resident BAK or BAX; from tissue
T2 sequence (O08734 1-209): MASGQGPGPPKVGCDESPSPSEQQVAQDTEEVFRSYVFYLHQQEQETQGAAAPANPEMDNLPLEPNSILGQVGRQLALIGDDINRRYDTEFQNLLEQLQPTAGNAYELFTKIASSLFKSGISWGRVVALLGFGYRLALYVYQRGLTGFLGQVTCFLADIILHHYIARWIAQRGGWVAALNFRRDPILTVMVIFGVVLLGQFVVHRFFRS
Procedure: (§3) 1,6-Bismaleimidohexane was obtained from Pierce (#22330). A 10 mM stock solution in DMSO was added to treated mitochondrial suspensions at a 1:11 dilution. Cross-linking took place for 30 minutes at room temperature, followed by centrifugation to pellet mitochondria. Pellets were dissolved in NuPAGE loading buffer (Invitrogen).
(§4) Antibodies used for immunoblot analysis included anti-cytochrome c (75981A, Pharmingen), anti-BAK (Upstate Biotechnology), and anti-BAX (N-20, Santa Cruz). Antibody detection was accomplished using enhanced chemiluminescence (Western Lightning, Perkin-Elmer).

mitochondria = assay: Cytochrome c release from isolated mitochondria (ELISA); format: biochemical, mouse; conditions: for cytochrome c release by peptide or protein alone: BIDBH3 at 10 μM, other concentrations not stated
Procedure: (§5) Mouse liver mitochondria were isolated from age-matched wt or Bak −/− mice. Livers were diced, subjected to Dounce rotary Teflon pestle disruption, then homogenized using a Kinematica Polytron homognizer. Following suspension in isolation buffer (250 mM sucrose, 10 mM Tris-HCl pH 7.4, 0.1 mM EGTA), mitochondria were isolated by differential centrifugation steps, followed by two washes in isolation buffer. Mitochondria from FL5.12 cells were isolated by cell disruption followed by differential centrifugation and washing as above. Cell disruption was performed either by a Kinematika Polytron homogenizer or by a combination of Dounce homogenization followed by 6-10 expulsions through a 27 gauge needle.
(§6) Mitochondria at a protein concentration of 0.5 mg/ml were treated at room temperature in experimental buffer (125 mM KCl, 10 mM Tris-MOPS pH 7.4, 5 mM glutamate, 2.5 mM malate, 1 mM KPO4, 10 µM EGTA-Tris pH 7.4). Percent release was quantitated using a colorimetric ELISA (MCTC0, R&D Systems). In all experiments, treatments with DMSO were used as a control for solvent activity.

[3] = system: BCL-2 overexpressing mitochondria; assay: Cytochrome c release from BCL-2 overexpressing FL5.12 mitochondria; format: biochemical; conditions: for capacity to overcome BCL-2 protection: with subliminal myrBID (30 nM); for cytochrome c release from mitochondria with overexpressed BCL-2, agent alone: 10 μM BIDBH3, 1 μM BIMBH3, 30 nM myrBID
Procedure: as §5, §6

GST-BCL-2 [4] = target: T1, GST-BCL-2; assay: Fluorescence polarization binding of fluoresceinated BH3 peptides to GST-BCL-2; conditions: for Kd: 25 nM fluoresceinated peptide, GST-BCL-2 titration, 37° C., read-out: Kd (nM), BCL-2 Binding
Text: as §1, §2

BAX = target: T3, BAX (Mus musculus, UniProt Q07813); assay: BAX oligomerization in mitochondria from FL5.12 cells, BMH cross-linking; format: biochemical; conditions: 100 μM peptide
T3 construct: mitochondria isolated from cultured FL5.12 cells, which contain both BAX and BAK; endogenous in cells; host or cells: mitochondria isolated from FL5.12 cells
Procedure: as §3, §4

T1 sequence (P10415 1-218 limits assumed): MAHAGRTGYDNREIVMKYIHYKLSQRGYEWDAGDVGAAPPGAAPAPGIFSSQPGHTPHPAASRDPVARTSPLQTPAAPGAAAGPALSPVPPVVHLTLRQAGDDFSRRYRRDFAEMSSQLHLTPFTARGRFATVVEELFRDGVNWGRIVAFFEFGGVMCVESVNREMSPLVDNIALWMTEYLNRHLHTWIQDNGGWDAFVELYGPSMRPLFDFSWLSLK
T3 sequence (Q07813 whole entry): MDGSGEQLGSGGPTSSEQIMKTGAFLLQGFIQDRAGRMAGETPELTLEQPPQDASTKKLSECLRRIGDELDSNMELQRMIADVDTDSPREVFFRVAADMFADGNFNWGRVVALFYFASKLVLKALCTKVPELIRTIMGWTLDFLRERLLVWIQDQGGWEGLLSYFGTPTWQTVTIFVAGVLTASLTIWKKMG

CSCC[C@H](NC(=O)[C@H](CCCNC(=N)N)NC(=O)[C@H](CCCNC(=N)N)NC(=O)[C@H](CC(C)C)NC(=O)[C@H](CCC(=O)O)NC(=O)[C@H](CCCNC(=N)N)NC(=O)CNC(=O)[C@H](Cc1ccc(O)cc1)NC(=O)[C@H](CCCNC(=N)N)NC(=O)[C@H](CCC(N)=O)NC(=O)[C@H](C)NC(=O)[C@H](C)NC(=O)[C@H](Cc1c[nH]c2ccccc12)NC(=O)[C@H](CC(C)C)NC(=O)[C@@H](N)CC(N)=O)C(=O)N[C@@H](CO)C(=O)N[C@@H](CC(=O)O)C(=O)N[C@@H](CCC(=O)O)C(=O)N[C@@H](Cc1ccccc1)C(=O)N[C@H](C(=O)N[C@@H](CC(=O)O)C(=O)N[C@@H](CO)C(=O)N[C@@H](Cc1ccccc1)C(=O)N[C@@H](CCCCN)C(=O)N[C@@H](CCCCN)C(=O)O)C(C)C [BADBH3]
% Helicity (222 nm) [1]: 23.9%
displacement of BIDBH3 from BCL-2 (GST-BCL-2 [2]): can efficiently displace pre-bound BIDBH3 peptide from BCL-2
BAK oligomerization (BAK): unable to induce BAK oligomerization
cytochrome c release by peptide or protein alone (mitochondria): inactive in this assay
cytochrome c release by peptide alone (mitochondria; even at 100 μM): cannot activate BAK or release cytochrome c
restoration of cytochrome c release to BIDBH3 and BIMBH3 ([3]; 100 μM BADBH3): to levels observed for wt mitochondria
restoration of sensitivity to myrBID ([3]; 200 μM BADBH3): markedly restores their sensitivity to even 1 nM myrBID
lowest concentration with measurable activity in inhibiting BCL-2 and enabling cytochrome c release by myrBID ([3]; FL5.12-BCL-2 mitochondria): 1 µM
capacity to overcome BCL-2 protection [3]: most prominently demonstrates the capacity to overcome BCL-2 protection
affinity for BCL-2 relative to BIDBH3 peptide (GST-BCL-2 [4]): approximately 5 fold
oligomerization of BAX (BAX): not

CC[C@H](C)[C@H](NC(=O)[C@H](CC(N)=O)NC(=O)[C@H](CCCNC(=N)N)NC(=O)[C@@H](NC(=O)[C@@H](NC(=O)[C@H](CC(=O)O)NC(=O)[C@@H](N)CCC(=O)O)[C@@H](C)CC)[C@@H](C)CC)C(=O)N[C@@H](C)C(=O)N[C@@H](CCCNC(=N)N)C(=O)N[C@@H](Cc1c[nH]cn1)C(=O)N[C@@H](CC(C)C)C(=O)N[C@@H](C)C(=O)N[C@@H](CCC(N)=O)C(=O)N[C@H](C(=O)NCC(=O)N[C@@H](CC(=O)O)C(=O)N[C@@H](CO)C(=O)N[C@@H](CCSC)C(=O)N[C@@H](CC(=O)O)C(=O)N[C@@H](CCCNC(=N)N)C(=O)O)C(C)C [BIDBH3]
% Helicity (222 nm) [1]: 19.5%
displacement of BADBH3 from BCL-2 (GST-BCL-2 [2]): does not effectively displace BADBH3 from BCL-2
BAK oligomerization (BAK): induces BAK oligomerization
concentration required for near total release of cytochrome c (mitochondria): 10 µM
cytochrome c release, Bak +/+ vs. −/− mitochondria (mitochondria; 100 μM peptide, liver mitochondria): BAK is required for the release of cytochrome c
cytochrome c release by peptide or protein alone (mitochondria): capable of initiating cytochrome c release
cytochrome c release from mitochondria with overexpressed BCL-2, agent alone [3]: failing to release cytochrome c
oligomerization of BAX (BAX): could also induce oligomerization of BAX

CC[C@H](C)[C@H](NC(=O)[C@H](CS)NC(=O)[C@H](C)NC(=O)[C@H](CC(C)C)NC(=O)[C@H](CCCNC(=N)N)NC(=O)[C@H](CC(C)C)NC(=O)[C@H](C)NC(=O)[C@H](CC(C)C)NC(=O)[C@H](C)NC(=O)[C@H](CC(=O)O)NC(=O)[C@H](CO)NC(=O)CNC(=O)[C@H](CCC(=O)O)NC(=O)[C@@H](N)CCSC)C(=O)NCC(=O)N[C@@H](CC(=O)O)C(=O)N[C@@H](CCC(=O)O)C(=O)N[C@@H](CCSC)C(=O)N[C@@H](CC(=O)O)C(=O)N[C@H](C(=O)O)C(C)C [BIKBH3]
% Helicity (222 nm) [1]: 8.5%
displacement of BIDBH3 from BCL-2 (GST-BCL-2 [2]): demonstrate the ability to displace BIDBH3
IC50 (GST-BCL-2 [2]): 4920 nM
restoration of cytochrome c release by myrBID ([3]; 100 μM BIKBH3): restore near-total cytochrome c release
capacity to overcome BCL-2 protection [3]: significant, but lesser, potency
Kd (GST-BCL-2 [4]): 485 nM

CC[C@H](C)[C@H](NC(=O)[C@H](CCCCN)NC(=O)[C@H](CCCNC(=N)N)NC(=O)[C@H](CC(C)C)NC(=O)[C@H](CCC(N)=O)NC(=O)[C@H](C)NC(=O)[C@H](C)NC(=O)[C@H](Cc1ccccc1)NC(=O)[C@H](CCC(=O)O)NC(=O)[C@@H]1CCCN1C(=O)[C@@H]1CCCN1C(=O)[C@H](CC(C)C)NC(=O)[C@H](CCC(=O)O)NC(=O)[C@H](C)N)C(=O)NCC(=O)N[C@@H](CC(=O)O)C(=O)N[C@@H](CCCCN)C(=O)N[C@H](C(=O)N[C@@H](Cc1ccc(O)cc1)C(=O)N[C@@H](CS)C(=O)O)C(C)C [NOXAABH3]
% Helicity (222 nm) [1]: 5.1%
displacement of BIDBH3 from BCL-2 (GST-BCL-2 [2]): did not bind detectably to BCL-2 or displace BIDBH3 from BCL-2
binding to BCL-2 (GST-BCL-2 [4]): did not bind detectably

CC[C@H](C)[C@H](NC(=O)[C@H](CCCNC(=N)N)NC(=O)[C@H](CCCNC(=N)N)NC(=O)[C@H](CC(C)C)NC(=O)[C@H](CCC(N)=O)NC(=O)[C@H](C)NC(=O)[C@H](CS)NC(=O)[C@H](CCC(=O)O)NC(=O)[C@H](CC(=O)O)NC(=O)[C@H](CCCCN)NC(=O)[C@H](CC(C)C)NC(=O)[C@H](CC(=O)O)NC(=O)[C@H](C)NC(=O)[C@@H]1CCCN1)C(=O)NCC(=O)N[C@@H](CC(=O)O)C(=O)N[C@@H](CCCCN)C(=O)N[C@H](C(=O)N[C@@H](CC(N)=O)C(=O)N[C@@H](CC(C)C)C(=O)O)C(C)C [NOXABBH3]
% Helicity (222 nm) [1]: 11.6%
displacement of BIDBH3 from BCL-2 (GST-BCL-2 [2]): did not bind detectably to BCL-2 or displace BIDBH3 from BCL-2
binding to BCL-2 (GST-BCL-2 [4]): did not bind detectably

VIPMAAVKQALREAGDEFEL [BCLXBH3]
IC50 (GST-BCL-2 [2]): > 30000 nM
Kd (GST-BCL-2 [4]): > 1000 nM

B1: myrBID: recombinant p7/myrp15, myristoylated BID complex (protein, UniProt P55957 1-195, looked up)
BH3-interacting domain death …: MDCEVNNGSSLRDECITNLLVFGFLQSCSDNSFRRELDALGHELPVLAPQWEGYDELQTDGNRSSHSRLGRIEADSESQEDIIRNIARHLAQVGDSMDRSIPPGLVNGLALQLRNTSRSEEDRNRDLATALEQLLQAYPRDMEKEKTMLVLALLLAKKVASHTPSLLRDVFHTTVNFINQNLRTYVRSLARNGMD
modifications: myristoylated; p7/p15 cleaved complex
concentration required for near total release of cytochrome c (mitochondria): 0.01 µM
cytochrome c release by peptide or protein alone (mitochondria): capable of initiating cytochrome c release
cytochrome c release from mitochondria with overexpressed BCL-2, agent alone [3]: failing to release cytochrome c

From patent publication US9902759B2, “BH3 peptides and methods of use thereof” (Dana-Farber Cancer Institute, Inc., priority 2002, dated 2018)
